Assays:
[1] = tested on: 4EBP1 (Thr37/46) phosphorylation (mTORC1) in MDA-MB-468 cells; assay: Cell based AlphaLISA assay, mTOR kinase cellular assay: inhibition of p-4E-BP1 (T37/46) in MDA-MB-468 cells; details: Homo sapiens, read-out: pIC50 for Inhibition of mTORC1 and mTORC2 Substarte Phosphorylation p-4E-BP1-(T37/46) (converted)
Procedure: (§1) Cell Based AlphaLISA Assays for Determining IC50 For Inhibition of P-Akt (S473), P-4E-BP1 (T37/46), and P-P70S6K (T389) in MDA-MB-468 Cells
(§2) mTOR Kinase Cellular Assay
(§3) To measure functional activity of mTORC1 and mTORC2 in cells the phosphorylation of 4EBP1 (Thr37/46) and P70S6K (Thr389), and AKT1/2/3 (Ser473) was monitored using AlphaLisa SureFire Ultra Kits (Perkin Elmer). MDA-MB-468 cells (ATCC® HTB-132) were cultured in 96-well tissue culture plates and treated with compounds in the disclosure at concentrations varying from 0.017-1,000 nM for two to four hours at 37° C. Incubations were terminated by removal of the assay buffer and addition of lysis buffer provided with the assay kit. Samples were processed according to the manufacturer's instructions. The Alpha signal from the respective phosphoproteins was measured in duplicate using a microplate reader (Envision, Perkin-Elmer or Spectramax M5, Molecular Devices). Inhibitor concentration response curves were analyzed using normalized IC50 regression curve fitting with control based normalization.

[2] = tested on: AKT1/2/3 (Ser473) phosphorylation (mTORC2) in MDA-MB-468 cells; assay: Cell based AlphaLISA assay, mTOR kinase cellular assay: inhibition of p-Akt (S473) in MDA-MB-468 cells; details: Homo sapiens, read-out: pIC50 for Inhibition of mTORC1 and mTORC2 Substarte Phosphorylation p-AKT1/2/3-(S473) (converted)
Procedure: as §1, §2, §3

SMILES | IC50 [1] [nM] | IC50 [2] [nM]
CO[C@H]1C[C@@H]2CC[C@@H](C)[C@@](O)(O2)C(=O)C(=O)N2CCCC[C@H]2C(=O)O[C@H]([C@H](C)C[C@@H]2CC[C@@H](OC(=O)NCc3cnc(N4CCN(C(=O)CCOCCN5CCN(c6ncc(C(=O)NCCCCn7nc(-c8ccc9oc(N)nc9c8)c8c(N)ncnc87)cn6)CC5)CC4)nc3)[C@H](OC)C2)CC(=O)[C@H](C)/C=C(\C)[C@@H](O)[C@@H](OC)C(=O)[C@H](C)C[C@H](C)/C=C/C=C/C=C/1C [Example 54] | ≤ 3.16 | ≤ 3.16
CO[C@H]1C[C@@H]2CC[C@@H](C)[C@@](O)(O2)C(=O)C(=O)N2CCCC[C@H]2C(=O)O[C@H]([C@H](C)C[C@@H]2CC[C@@H](OC(=O)NCc3cnc(N4CCN(c5ncc(C(=O)N6CCN(c7ncc(C(=O)N8CCc9cc(Cn%10nc(-c%11ccc%12oc(N)nc%12c%11)c%11c(N)ncnc%11%10)ccc9C8)cn7)CC6)cn5)CC4)nc3)[C@H](OC)C2)CC(=O)[C@H](C)/C=C(\C)[C@@H](O)[C@@H](OC)C(=O)[C@H](C)C[C@H](C)/C=C/C=C/C=C/1C [Example 60] | 3.16 to 31.6 | –
CO[C@H]1C[C@@H]2CC[C@@H](C)[C@@](O)(O2)C(=O)C(=O)N2CCCC[C@H]2C(=O)O[C@H]([C@H](C)C[C@@H]2CC[C@@H](OC(=O)NCCOCCOCCOCCOCCOCCOCCOCCOCCC(=O)NCc3ccc(Cn4nc(-c5ccc6oc(N)nc6c5)c5c(N)ncnc54)cc3)[C@H](OC)C2)C[C@H](N=[N+]=[N-])[C@H](C)/C=C(\C)[C@@H](O)[C@@H](OC)C(=O)[C@H](C)C[C@H](C)/C=C/C=C/C=C/1C [Example 82] | ≤ 3.16 | –
CO[C@H]1C[C@@H]2CC[C@@H](C)[C@@](O)(O2)C(=O)C(=O)N2CCCC[C@H]2C(=O)O[C@H]([C@H](C)C[C@@H]2CC[C@@H](OC(=O)NCc3cnc(N4CCN(C(=O)CN(C)CC(=O)NCCOCCOCCC(=O)N5CCc6cc(Cn7nc(-c8ccc9oc(N)nc9c8)c8c(N)ncnc87)ccc6C5)CC4)nc3)[C@H](OC)C2)C[C@@H](OC)[C@H](C)/C=C(\C)[C@@H](O)[C@@H](OC)C(=O)[C@H](C)C[C@H](C)/C=C/C=C/C=C/1C [Example 103] | > 1000 | > 1000
CO[C@H]1C[C@@H]2CC[C@@H](C)[C@@](O)(O2)C(=O)C(=O)N2CCCC[C@H]2C(=O)O[C@H]([C@H](C)C[C@@H]2CC[C@@H](OC(=O)NCc3cnc(N4CCN(c5ncc(C(=O)NCCOCCOCCOCCOCCC(=O)N6CCc7cc(Cn8nc(-c9ccc%10oc(N)nc%10c9)c9c(N)ncnc98)ccc7C6)c(N)n5)CC4)nc3)[C@H](OC)C2)C[C@@H](OC)[C@H](C)/C=C(\C)[C@@H](O)[C@@H](OC)C(=O)[C@H](C)C[C@H](C)/C=C/C=C/C=C/1C [Example 106] | 3.16 to 31.6 | > 1000
CO[C@H]1C[C@@H]2CC[C@@H](C)[C@@](O)(O2)C(=O)C(=O)N2CCCC[C@H]2C(=O)O[C@H]([C@H](C)C[C@@H]2CC[C@@H](OC(=O)NCc3cnc(N4CCN(CCOCCN5CCN(c6ncc(C(=O)N7CCc8cc(Cn9nc(-c%10ccc%11oc(N)nc%11c%10)c%10c(N)ncnc%109)ccc8C7)cn6)CC5)CC4)nc3)[C@H](OC)C2)C[C@@H](OC)[C@H](C)/C=C(\C)[C@@H](O)[C@@H](OC)C(=O)[C@H](C)C[C@H](C)/C=C/C=C/C=C/1C [Example 125] | ≤ 3.16 | –
CO[C@H]1C[C@@H]2CC[C@@H](C)[C@@](O)(O2)C(=O)C(=O)N2CCCC[C@H]2C(=O)O[C@H]([C@H](C)C[C@@H]2CC[C@@H](OC(=O)N3CCc4nc(N5CCN(CCOCCN6CCN(c7ncc(C(=O)N8CCc9cc(Cn%10nc(-c%11ccc%12oc(N)nc%12c%11)c%11c(N)ncnc%11%10)ccc9C8)cn7)CC6)CC5)ncc4C3)[C@H](OC)C2)C[C@@H](OC)[C@H](C)/C=C(\C)[C@@H](O)[C@@H](OC)C(=O)[C@H](C)C[C@H](C)/C=C/C=C/C=C/1C [Example 126] | 3.16 to 31.6 | –
CO[C@H]1C[C@@H]2CC[C@@H](C)[C@@](O)(O2)C(=O)C(=O)N2CCCC[C@H]2C(=O)O[C@H]([C@H](C)C[C@@H]2CC[C@@H](OC(=O)NCc3cnc(N4CCN(C(=O)CCOCCN5CCN(C(=O)CCC(=O)N6CCc7cc(Cn8nc(-c9ccc%10oc(N)nc%10c9)c9c(N)ncnc98)ccc7C6)CC5)CC4)nc3)[C@H](OC)C2)C[C@@H](O)[C@H](C)/C=C(\C)[C@@H](O)[C@@H](OC)C(=O)[C@H](C)C[C@H](C)/C=C/C=C/C=C/1C [Example 129] | – | > 1000
CO[C@H]1C[C@@H]2CC[C@@H](C)[C@@](O)(O2)C(=O)C(=O)N2CCCC[C@H]2C(=O)O[C@H]([C@H](C)C[C@@H]2CC[C@@H](OC(=O)NCc3cnc(N4CCN(C(=O)CCOCCN5CCN(C(=O)CCC(=O)N6CCc7cc(Cn8nc(-c9ccc%10oc(N)nc%10c9)c9c(N)ncnc98)ccc7C6)CC5)CC4)nc3)[C@H](OC)C2)C[C@@H](OC)[C@H](C)/C=C(\C)[C@@H](O)[C@@H](OC)C(=O)[C@H](C)C[C@H](C)/C=C/C=C/C=C/1C [Example 130] | – | > 1000
CO[C@H]1C[C@@H]2CC[C@@H](C)[C@@](O)(O2)C(=O)C(=O)N2CCCC[C@H]2C(=O)O[C@H]([C@H](C)C[C@@H]2CC[C@@H](OC(=O)NCc3cnc(N4CCN(C(=O)CCOCCN5CCN(c6ncc(C(=O)N7CCc8cc(Cn9nc(-c%10ccc%11oc(N)nc%11c%10)c%10c(N)ncnc%109)ccc8C7)cn6)CC5)[C@@H](C(=O)O)C4)nc3)[C@H](OC)C2)C[C@@H](OC)[C@H](C)/C=C(\C)[C@@H](O)[C@@H](OC)C(=O)[C@H](C)C[C@H](C)/C=C/C=C/C=C/1C [Example 131] | – | 3.16 to 31.6
CO[C@H]1C[C@@H]2CC[C@@H](C)[C@@](O)(O2)C(=O)C(=O)N2CCCC[C@H]2C(=O)O[C@H]([C@H](C)C[C@@H]2CC[C@@H](O)[C@H](OC)C2)CC(=O)[C@H](C)/C=C(\C)[C@@H](OC(=O)NCc2cnc(N3CCN(C(=O)CCOCCN4CCN(c5ncc(C(=O)N6CCc7cc(Cn8nc(-c9ccc%10oc(N)nc%10c9)c9c(N)ncnc98)ccc7C6)cn5)CC4)CC3)nc2)[C@@H](OC)C(=O)[C@H](C)C[C@H](C)/C=C/C=C/C=C/1C [Example 133] | ≤ 3.16 | –
CO[C@H]1C[C@@H]2CC[C@@H](C)[C@@](O)(O2)C(=O)C(=O)N2CCCC[C@H]2C(=O)O[C@H]([C@H](C)C[C@@H]2CC[C@@H](OC(=O)NCCOCCOCCN3CCN(CCOCCOCCOCCOCCC(=O)N4CCc5cc(Cn6nc(-c7ccc8oc(N)nc8c7)c7c(N)ncnc76)ccc5C4)CC3)[C@H](OC)C2)C[C@@H](O)[C@H](C)/C=C(\C)[C@@H](O)[C@@H](OC)C(=O)[C@H](C)C[C@H](C)/C=C/C=C/C=C/1C [Example 135] | – | > 1000
CO[C@H]1C[C@@H]2CC[C@@H](C)[C@@](O)(O2)C(=O)C(=O)N2CCCC[C@H]2C(=O)O[C@H]([C@H](C)C[C@@H]2CC[C@@H](OC(=O)NCc3cnc(N4CCN(C(=O)CCOCCN5CCN(c6ncc(C(=O)N7CCc8cc(Cn9nc(-c%10ccc%11oc(N)nc%11c%10)c%10c(N)ncnc%109)ccc8C7)cn6)CC5)CC4)nc3)[C@H](OC)C2)C[C@H](N=[N+]=[N-])[C@H](C)/C=C(\C)[C@@H](O)[C@@H](OC)C(=O)[C@H](C)C[C@H](C)/C=C/C=C/C=C/1C [Example 151] | – | > 1000
CO[C@H]1C[C@@H]2CC[C@@H](C)[C@@](O)(O2)C(=O)C(=O)N2CCCC[C@H]2C(=O)O[C@H]([C@H](C)C[C@@H]2CC[C@@H](OC(=O)NCCOCCOCCN3C[C@@H]4C[C@H]3CN4CCOCCOCCOCCOCCC(=O)N3CCc4cc(Cn5nc(-c6ccc7oc(N)nc7c6)c6c(N)ncnc65)ccc4C3)[C@H](OC)C2)C[C@@H](O)[C@H](C)/C=C(\C)[C@@H](O)[C@@H](OC)C(=O)[C@H](C)C[C@H](C)/C=C/C=C/C=C/1C [Example 152] | – | 31.6 to 1000
